Test results published in patent US6599927B2, “Use of an H+, K+-ATPase inhibitor in the treatment of Widal's Syndrome” (AstraZeneca AB, priority 1996, dated 2003).
“Also recorded” adds a separate entry of the source.

Test system: nasal polyps
Assay: Two week treatment of nine patients with omeprazole, intranasal budesonide and oral deflazacort (Examples 2 to 10)
Format: in vivo, human
Conditions: two weeks, 20 mg omeprazole, 100 μg intranasal budesonide, 3 to 15 mg oral deflazacort
Description: Nine patients, each with the conditions shown in the following Table 1, were treated during a two week period. The treatment consisted of 20 mg of omeprazole, 100 μg of intranasal budesonide and 3 to 15 mg of oral deflazacort (deflazacort was used in such a small quantity to ensure the patients' compliance).

Structure (SMILES): COc1ccc2[nH]c([S+]([O-])Cc3ncc(C)c(OC)c3C)nc2c1 (stereo not drawn) [omeprazole]
- Result (patient with Nasal Polyposis and aspirin intolerance (Example 9)): Positive effect
- Result (patients with Nasal Polyposis (Examples 5-8)): Positive effect; also recorded: Long term benefit
- Result (patients with Widal's Syndrome (Examples 2-4)): Temporary benefit; also recorded: Positive effect
